Laboratory results: ChEMBL document CHEMBL1153395, “Development of a novel virtual screening cascade protocol to identify potential trypanothione reductase inhibitors” (J Med Chem, 2009)

Experiments:
Trypanothione reductase [1] = biological target: Trypanothione reductase (Trypanosoma cruzi, UniProt P28593); test: Inhibition of Trypanosoma cruzi Trypanothione reductase
Trypanothione reductase [2] = biological target: Trypanothione reductase (Trypanosoma brucei brucei, UniProt P39051); test: Inhibition of Trypanosoma brucei Trypanothione reductase
Sequence of Trypanothione reductase (Trypanosoma brucei brucei, UniProt P39051) (P39051 whole entry): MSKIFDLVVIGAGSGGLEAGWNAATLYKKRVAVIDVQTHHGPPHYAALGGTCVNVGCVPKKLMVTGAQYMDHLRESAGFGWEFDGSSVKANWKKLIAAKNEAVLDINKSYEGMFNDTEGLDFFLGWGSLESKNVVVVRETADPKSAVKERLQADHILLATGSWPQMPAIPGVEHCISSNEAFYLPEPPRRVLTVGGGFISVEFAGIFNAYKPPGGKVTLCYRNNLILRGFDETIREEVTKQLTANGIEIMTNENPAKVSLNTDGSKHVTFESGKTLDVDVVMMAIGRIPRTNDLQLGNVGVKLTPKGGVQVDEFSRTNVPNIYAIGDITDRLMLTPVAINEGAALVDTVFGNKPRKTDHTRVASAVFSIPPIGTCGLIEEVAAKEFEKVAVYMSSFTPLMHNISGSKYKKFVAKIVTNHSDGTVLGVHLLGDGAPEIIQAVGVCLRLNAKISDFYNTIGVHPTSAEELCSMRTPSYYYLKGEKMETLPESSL

Sequence of Trypanothione reductase (Trypanosoma cruzi, UniProt P28593) (P28593 whole entry): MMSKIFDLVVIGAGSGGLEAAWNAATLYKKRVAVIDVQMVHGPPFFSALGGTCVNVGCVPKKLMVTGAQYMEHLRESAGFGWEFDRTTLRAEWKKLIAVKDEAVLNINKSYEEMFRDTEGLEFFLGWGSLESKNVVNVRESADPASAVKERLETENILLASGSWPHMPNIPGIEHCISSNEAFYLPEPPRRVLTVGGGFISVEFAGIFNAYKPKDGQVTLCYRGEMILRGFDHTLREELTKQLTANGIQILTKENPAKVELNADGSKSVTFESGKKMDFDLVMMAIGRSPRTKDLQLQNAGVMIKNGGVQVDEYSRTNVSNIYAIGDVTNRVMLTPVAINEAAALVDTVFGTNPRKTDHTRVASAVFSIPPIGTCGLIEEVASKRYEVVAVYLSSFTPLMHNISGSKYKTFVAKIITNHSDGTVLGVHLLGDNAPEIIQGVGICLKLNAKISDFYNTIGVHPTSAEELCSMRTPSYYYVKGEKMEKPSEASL

SMILES | IC50 (Trypanothione reductase [1]) [µM] | IC50 (Trypanothione reductase [2]) [µM]
NCCCCC(N)C(=O)Nc1ccc2ccccc2c1 (configuration not stated) | > 100 | > 100
CC12CN3CC(C)(C1)C[N+](Cc1cccc(Br)c1)(C3)C2 | > 100 | > 100
O=C(CN1C(=O)C2CC=CCC2C1=O)Nc1ccccc1Sc1ccc(Cl)cc1 (configuration not stated) | > 100 | > 100
Cc1ccc(N2CC(C(=O)Nc3ccccc3Sc3ccccc3)CC2=O)cc1 (configuration not stated) | > 100 | > 100
C[N+]1(C)CCCC2c3ccccc3Sc3ccc(Cl)cc3C21 (configuration not stated) | 75.3 | 58.7
C[N+]1(Cc2ccccc2)CCC(/N=C/C2C(=O)NC(=O)N(C3CCCCC3)C2=O)CC1 (configuration not stated) | 45.2 | > 100
O=C(CN1C(=O)NC2(CCCCCC2)C1=O)Nc1ccccc1Sc1ccccc1 | > 100 | > 100
CC1CCCCC12NC(=O)N(CC(=O)Nc1ccccc1Sc1ccccc1)C2=O (configuration not stated) | – | > 100
CC(NS(=O)(=O)c1ccccc1)C(=O)Nc1ccccc1Sc1ccccc1 (configuration not stated) | > 100 | > 100
CN(CC(=O)Nc1ccccc1Sc1ccccc1)C1CCCCC1 | 56.3 | 46.9
CCN1CCN(C2Cc3ccccc3Sc3ccc(Cl)cc32)CC1 (configuration not stated) | 29.1 | 36
O=C(CCN1CCN2CCCCC2C1)N1c2ccccc2Sc2ccc(Cl)cc21 (configuration not stated) | 35.4 | 31.9
O=C(CN1CCN(c2ccccc2)CC1)Nc1ccccc1Sc1ccccc1 | > 100 | > 100
CN1CCN(C2=NC(=O)CC(C(=O)Nc3cccc(Cl)c3)N2)CC1 (configuration not stated) | > 100 | > 100
CN(C)CCCC1Sc2ccccc2Sc2ccccc21 (configuration not stated) | 36.7 | 37.3
CN1CCCC(CC2Oc3ccccc3Sc3ccccc32)C1 (configuration not stated) | 11.5 | 14.6
NC(=O)C1(N2CCCCC2)CCN(CC(=O)Nc2ccccc2Sc2ccccc2)CC1 | > 100 | > 100
O=C(CN1CCCCCC1)N1c2ccccc2Sc2ccc(Cl)cc21 | 78.7 | > 100
c1ccc2c(c1)Sc1ccccc1N2CC1CN2CCC1CC2 (configuration not stated) [MEQUITAZINE] | 21.8 | 54.3
